In the experiment the test system is Mycobacterium tuberculosis H37Rv. Put plainly: Mycobacterium tuberculosis H37Rv Inhibition Assay. In kind it is cell-based.
The mark [1] stands for this setting: ATCC 25618 / H37Rv, H37Rv strain (ATCC25618), Middlebrook 7H9, resazurin fluorescence, read-out: MtB MIC.
[2] abbreviates: H37Rv inhibition assay, read-out: MIC value.
Setting [3] is: ATCC 25618 / H37Rv, read-out: MtB MIC.

SMILES strings stand for the structures. Values after ≈ are worked out from the molar mass of the structure shown. Where a name gives a salt, the structure may show the parent alone. Read-outs that look alike come from different tables or passages of the source. A value given as a limit tells only on which side of the number the result lay.

What is called MIC is the lowest concentration found to suppress growth. On to `O=c1ccc2ncc(=O)n3c2n1CC3CN1CCC(NCc2ccc([N+](=O)[O-])cc2)CC1` (centres unmarked) [Example 38, 2-[(4-{[(4-nitrophenyl)methyl]amino}-1-piperidinyl)methyl]-1,2-dihydro-3H,8H-2a,5,8a-triazaacenaphthylene-3,8-dione], for which the MIC under setting [1] is 0.273 µg/mL (≈ 0.625 µM).
Same read-out and setting: as for `O=c1ccc2ncc(=O)n3c2n1CC3CN1CCC(NCc2ccc(Br)cc2)CC1` (centres unmarked) [Example 29, 2-[(4-{[(4-bromophenyl)methyl]amino}-1-piperidinyl)methyl]-1,2-dihydro-3H,8H-2a,5,8a-triazaacenaphthylene-3,8-dione], the figure is 0.147 µg/mL (≈ 0.313 µM).
Consider `Cc1ncc(CNC2CCN(CC3Cn4c(=O)ccc5ncc(=O)n3c54)CC2)cc1F` (centres unmarked) [Example 52, 2-[(4-{[(5-fluoro-6-methyl-3-pyridinyl)methyl]amino}-1-piperidinyl)methyl]-1,2-dihydro-3H,8H-2a,5,8a-triazaacenaphthylene-3,8-dione], for which the minimum inhibitory concentration (MIC) under setting [1] is > 2.12 µg/mL and the minimal inhibitory concentration (MIC) under setting [2] was > 1 µg/mL.
For `COc1ccc(CNC2CCN(CC3Cn4c(=O)ccc5ncc(=O)n3c54)CC2)cc1Cl` (centres unmarked) [Example 39, 2-{[4-({[3-chloro-4-(methyloxy)phenyl]methyl}amino)-1-piperidinyl]methyl}-1,2-dihydro-3H,8H-2a,5,8a-triazaacenaphthylene-3,8-dione], the minimal inhibitory concentration (MIC) reads like this: under setting [1], 1.14 µg/mL (≈ 2.5 µM); under setting [2], > 1 µg/mL.
As to `Cl.O=c1ccc2ncc(=O)n3c2n1C[C@H]3CN1CCC(NCc2ccc(Cl)c(Cl)c2)CC1` [Example 3, (2R)-2-[(4-{[(3,4-dichlorophenyl)methyl]amino}-1-piperidinyl)methyl]-1,2-dihydro-3H,8H-2a,5,8a-triazaacenaphthylene-3,8-dione], under setting [1], the minimal inhibitory concentration (MIC) was 0.04 µg/mL.
`Cc1ncc(CNC2CCN(C[C@@H]3Cn4c(=O)ccc5ccc(=O)n3c54)CC2)cc1Cl.Cl` [Example 1, (1R)-1-[(4-{[(5-chloro-6-methyl-3-pyridinyl)methyl]amino}-1-piperidinyl)methyl]-1,2-dihydro-4H,9H-imidazo[1,2,3-ij]-1,8-naphthyridine-4,9-dione hydrochloride]: the MIC under setting [1] worked out at 0.04 µg/mL.
For the compound `O=c1ccc2ccc(=O)n3c2n1C[C@H]3CN1CCC(NCc2ccc(C(F)(F)F)nn2)CC1` [Example 18, (1R)-1-{[4-({[6-(trifluoromethyl)-3-pyridazinyl]methyl}amino)-1-piperidinyl]methyl}-1,2-dihydro-4H,9H-imidazo[1,2,3-ij]-1,8-naphthyridine-4,9-dione], the minimum inhibitory concentration (MIC) under setting [1] is 0.432 µg/mL (≈ 0.938 µM).
In the case of `Cc1ccc(CNC2CCN(CC3Cn4c(=O)ccc5ncc(=O)n3c54)CC2)cc1[N+](=O)[O-]` (centres unmarked) [Example 23, 2-[(4-{[(4-methyl-3-nitrophenyl)methyl]amino}-1-piperidinyl)methyl]-1,2-dihydro-3H,8H-2a,5,8a-triazaacenaphthylene-3,8-dione], the MIC under setting [1] stood at 0.036 µg/mL (≈ 0.0799 µM).
As to `O=c1ccc2ncc(=O)n3c2n1C[C@@H]3CN1CCC(NCc2ccc(Cl)c(Cl)c2)CC1` [Example 47, (2S)-2-[(4-{[(3,4-dichlorophenyl)methyl]amino}-1-piperidinyl)methyl]-1,2-dihydro-3H,8H-2a,5,8a-triazaacenaphthylene-3,8-dione], the minimal inhibitory concentration (MIC) under setting [1] is 0.072 µg/mL (≈ 0.156 µM).
For the compound `Cc1cc(CNC2CCN(C[C@@H]3Cn4c(=O)ccc5ccc(=O)n3c54)CC2)cnc1C` [Example 13, (1R)-1-[(4-{[(5,6-dimethyl-3-pyridinyl)methyl]amino}-1-piperidinyl)methyl]-1,2-dihydro-4H,9H-imidazo[1,2,3-ij]-1,8-naphthyridine-4,9-dione], the MIC was 1.05 µg/mL (≈ 2.5 µM) under setting [1] and > 1 µg/mL under setting [2].
Regarding `Cc1ncc(CNC2CCN(C[C@@H]3Cn4c(=O)ccc5ncc(=O)n3c54)CC2)cc1Cl.Cl` [Example 2, (2R)-2-[(4-{[(5-chloro-6-methyl-3-pyridinyl)methyl]amino}-1-piperidinyl)methyl]-1,2-dihydro-3H,8H-2a,5,8a-triazaacenaphthylene-3,8-dione hydrochloride], the minimum inhibitory concentration (MIC) under setting [1] worked out at 0.04 µg/mL.
On the same count and under the same terms, next, `Cc1ccc(CNC2CCN(CC3Cn4c(=O)ccc5ncc(=O)n3c54)CC2)cc1C` (centres unmarked) [Example 25, 2-[(4-{[(3,4-dimethylphenyl)methyl]amino}-1-piperidinyl)methyl]-1,2-dihydro-3H,8H-2a,5,8a-triazaacenaphthylene-3,8-dione]: 0.262 µg/mL (≈ 0.625 µM); `Cc1ncc(CNC2CCN(C[C@H]3Cn4c(=O)ccc5ncc(=O)n3c54)CC2)cc1Cl` [Example 53, (2S)-2-[(4-{[(5-chloro-6-methyl-3-pyridinyl)methyl]amino}-1-piperidinyl)methyl]-1,2-dihydro-3H,8H-2a,5,8a-triazaacenaphthylene-3,8-dione]: 0.83 µg/mL (≈ 1.88 µM).
In the case of `Cc1cc(CNC2CCN(CC3Cn4c(=O)ccc5ncc(=O)n3c54)CC2)sc1Br` (centres unmarked) [Example 24, 2-[(4-{[(5-bromo-4-methyl-2-thienyl)methyl]amino}-1-piperidinyl)methyl]-1,2-dihydro-3H,8H-2a,5,8a-triazaacenaphthylene-3,8-dione], under setting [1], the minimum inhibitory concentration (MIC) was 0.077 µg/mL (≈ 0.157 µM).
Consider `Cc1ncc(CNC2CCN(C[C@@H]3Cn4c(=O)cnc5ccc(=O)n3c54)CC2)cc1Br` [Example 55, (1R)-1-[(4-{[(5-bromo-6-methyl-3-pyridinyl)methyl]amino}-1-piperidinyl)methyl]-1,2-dihydro-3H,8H-2a,5,8a-triazaacenaphthylene-3,8-dione hydrochloride], for which the MIC under setting [3] was found to be 0.04 µg/mL.
For the compound `Cc1ncc(CNC2CCN(C[C@@H]3Cn4c(=O)ccc5ccc(=O)n3c54)CC2)cc1Br.Cl` [Example 12, (1R)-1-[(4-{[(5-bromo-6-methyl-3-pyridinyl)methyl]amino}-1-piperidinyl)methyl]-1,2-dihydro-4H,9H-imidazo[1,2,3-ij]-1,8-naphthyridine-4,9-dione hydrochloride], the MIC under setting [1] was < 0.019 µg/mL.
Take `COc1cc(CNC2CCN(CC3Cn4c(=O)ccc5ncc(=O)n3c54)CC2)ccc1C` (centres unmarked) [Example 57, 2-{[4-({[4-methyl-3-(methyloxy)phenyl]methyl}amino)-1-piperidinyl]methyl}-1,2-dihydro-3H,8H-2a,5,8a-triazaacenaphthylene-3,8-dione]: under setting [1], the MIC amounted to 1.09 µg/mL (≈ 2.5 µM).
Take `Cl.O=c1ccc2ccc(=O)n3c2n1C[C@H]3CN1CCC(NCc2ccc(C(F)(F)F)nc2)CC1` [Example 59, (1R)-1-{[4-({[6-(trifluoromethyl)-3-pyridinyl]methyl}amino)-1-piperidinyl]methyl}-1,2-dihydro-4H,9H-imidazo[1,2,3-ij]-1,8-naphthyridine-4,9-dione hydrochloride]: the minimum inhibitory concentration (MIC) under setting [1] stood at 0.154 µg/mL.
As for `COCCc1ncc(CNC2CCN(C[C@@H]3Cn4c(=O)ccc5ncc(=O)n3c54)CC2)cc1Cl` [Example 65, (2R)-2-({4-[({5-chloro-6-[2-(methyloxy)ethyl]-3-pyridinyl}methyl)amino]-1-piperidinyl}methyl)-1,2-dihydro-3H,8H-2a,5,8a-triazaacenaphthylene-3,8-dione], the MIC under setting [2] is > 1 µg/mL.
As for `O=c1ccc2ccc(=O)n3c2n1C[C@H]3CN1CCC(NCc2ccc(C(F)(F)F)nc2)CC1` [Example 9, (1R)-1-{[4-({[6-(trifluoromethyl)-3-pyridinyl]methyl}amino)-1-piperidinyl]methyl}-1,2-dihydro-4H,9H-imidazo[1,2,3-ij]-1,8-naphthyridine-4,9-dione], under setting [3], the MIC was found to be 0.14 µg/mL (≈ 0.305 µM).
In the case of `Cc1ccc(CNC2CCN(CC3Cn4c(=O)ccc5ncc(=O)n3c54)CC2)cc1F` (centres unmarked) [Example 43, 2-[(4-{[(3-fluoro-4-methylphenyl)methyl]amino}-1-piperidinyl)methyl]-1,2-dihydro-3H,8H-2a,5,8a-triazaacenaphthylene-3,8-dione], the MIC under setting [1] is 0.066 µg/mL (≈ 0.156 µM).
As for `O=c1ccc2ncc(=O)n3c2n1CC3CN1CCC(NCc2cccc(Cl)c2)CC1` (centres unmarked) [Example 22, 2-[(4-{[(3-chlorophenyl)methyl]amino}-1-piperidinyl)methyl]-1,2-dihydro-3H,8H-2a,5,8a-triazaacenaphthylene-3,8-dione], the MIC under setting [1] came out at 1.06 µg/mL (≈ 2.5 µM) and the minimum inhibitory concentration (MIC) under setting [2] was > 1 µg/mL.
For the compound `Cl.O=c1ccc2ncc(=O)n3c2n1C[C@H]3CN1CCC(NCc2ccc(C(F)(F)F)nc2)CC1` [Example 46, (2R)-2-{[4-({[6-(trifluoromethyl)-3-pyridinyl]methyl}amino)-1-piperidinyl]methyl}-1,2-dihydro-3H,8H-2a,5,8a-triazaacenaphthylene-3,8-dione hydrochloride], under setting [1], the minimum inhibitory concentration (MIC) turned out to be 0.078 µg/mL.
For the compound `Cl.O=c1ccc2ncc(=O)n3c2n1C[C@H]3CN1CCC(NCc2ccc(F)c(C(F)(F)F)c2)CC1` [Example 4, (2R)-2-{[4-({[4-fluoro-3-(trifluoromethyl)phenyl]methyl}amino)-1-piperidinyl]methyl}-1,2-dihydro-3H,8H-2a,5,8a-triazaacenaphthylene-3,8-dione hydrochloride], the minimum inhibitory concentration (MIC) under setting [1] turned out to be 0.04 µg/mL.
With `Cl.N#Cc1cc(CNC2CCN(C[C@@H]3Cn4c(=O)ccc5ncc(=O)n3c54)CC2)ccc1F` [Example 5, 5-{[(1-{[(2R)-3,8-dioxo-1,2-dihydro-3H,8H-2a,5,8a-triazaacenaphthylen-2-yl]methyl}-4-piperidinyl)amino]methyl}-2-fluorobenzonitrile hydrochloride], the minimum inhibitory concentration (MIC) under setting [1] is 0.11 µg/mL.
As to `Cc1cc(CNC2CCN(CC3Cn4c(=O)ccc5ncc(=O)n3c54)CC2)ccc1Cl` (centres unmarked) [Example 34, 2-[(4-{[(4-chloro-3-methylphenyl)methyl]amino}-1-piperidinyl)methyl]-1,2-dihydro-3H,8H,2a,5,8a-triazaacenaphthylene-3,8-dione], under setting [1], the MIC came to 0.069 µg/mL (≈ 0.157 µM).
Take `Cl.O=c1ccc2ncc(=O)n3c2n1CC3CN1CCC(NCc2ccc(Cl)c(Cl)c2)CC1` (centres unmarked) [Example 36, 2-[(4-{[(3,4-dichlorophenyl)methyl]amino}-1-piperidinyl)methyl]-1,2-dihydro-3H,8H-2a,5,8a-triazaacenaphthylene-3,8-dione]: the minimum inhibitory concentration (MIC) under setting [1] turned out to be 0.015 µg/mL.
For `N#Cc1ncc(CNC2CCN(C[C@@H]3Cn4c(=O)ccc5ccc(=O)n3c54)CC2)cc1Cl` [Example 49, 3-chloro-5-{[(1-{[(1R)-4,9-dioxo-1,2-dihydro-4H,9H-imidazo[1,2,3-ij]-1,8-naphthyridin-1-yl]methyl}-4-piperidinyl)amino]methyl}-2-pyridinecarbonitrile], the MIC under setting [1] worked out at 0.07 µg/mL (≈ 0.155 µM).

Values taken from patent US8097628B2, “Compounds” (Glaxo Group Limited, priority 2008, dated 2012).
